How the values were obtained:
Assay type in all cases: cell-based, Human
HCC827 = assay: MTT cell viability assay, HCC827
Description: (§1) Human NSCLC cell lines A549, H1437, H2087, H522, and HCC827 were obtained from the Korean Cell Line Bank (KCLB, Seoul, Korea). These cells were cultured in RPMI-1640 medium (Gibco, N.Y., USA) supplemented with 10% FBS (Gibco) and 1% penicillin-streptomycin (HyClone Laboratories, Logan, Utah, USA). All cell lines were cultured under standard conditions (5% CO2, humid environment, 37° C.). A549 cells were seeded at a density of 1×10^4 cells/well and H1437, H2087, H522, HCC827, and MRCS cells at a density of 2×10^4 cells/well in 96-well plates and were cultured until cells reach approximately 70-80% confluency. The NSCLC cells were treated with plant hormones for 48 hours. Stock solution of each plant hormone was diluted with culture medium, wherein concentrations of DMSO, water, methanol, and ethanol in the culture medium were below 1% (v/v). The half-maximal inhibitory concentration (IC50) was calculated using CompuSyn software (ComboSyn Inc., Paramus, N.J., USA).
(§2) The inhibitory effect of plant hormones and their derivatives was investigated on 5 NSCLC cell lines (A549, H1437, H2087, H522, and HCC827). The NSCLC cells were treated with ABA, Cor, ethephon, GR-24, IAA, KR, MJ, N6b, N6i, oTR, and SS-HCS at concentrations of 0.1, 0.5, 1, 5, 10, 50, and 100 μM. Cell viability and IC50 values for 48 hours were investigated by performing the MTT assay.

H2087 = assay: MTT cell viability assay, H2087
Description: as §1, §2

H1437 = assay: MTT cell viability assay, H1437
Description: as §1, §2

H522 = assay: MTT cell viability assay, H522
Description: as §1, §2

A549 = assay: MTT cell viability assay, A549
Description: as §1, §2

NSCLC cells = assay: MTT cell viability assay, NSCLC cells overall; conditions: Homo sapiens; 48 hours, MTT assay, 5 NSCLC cell lines
Description: as §1, §2

[1] = Homo sapiens, NCI-H2087, 48 hours
[2] = Homo sapiens, NCI-H1437, 48 hours
[3] = Homo sapiens, NCI-H522, 48 hours

IC50 (HCC827; 48 hours) [µM] | IC50 (H2087; 48 hours) [µM] | IC50 (H1437; 48 hours) [µM] | IC50 (H522; 48 hours) [µM] | IC50 (A549; 48 hours) [µM] | Structure (SMILES) | IC50 (HCC827; Homo sapiens, HCC827, 48 hours) [µM] | IC50 (H2087; [1]) [µM] | IC50 (H1437; [2]) [µM] | IC50 (H522; [3]) [µM] | IC50 (A549; Homo sapiens, A549, 48 hours) [µM] | IC50 (NSCLC cells) [µM]
 |  |  |  |  | CC1=CC(=O)CC(C)(C)[C@@]1(O)/C=C/C(C)=C\C(=O)O [ABA, abscisic acid] | > 100 | > 100 | > 100 | > 100 | > 100 | 
 |  |  |  |  | O=P(O)(O)CCCl [Ethephon, ethephon] | > 100 | > 100 | > 100 | > 100 | > 100 | 
> 100 | > 100 | > 100 | > 100 | > 100 | CC1=C[C@H](O/C=C2/C(=O)O[C@@H]3c4ccccc4C[C@H]23)OC1=O [GR-24, Gerald Rosebery-24] |  |  |  |  |  | 
 |  |  |  |  | OC[C@H]1O[C@@H](n2cnc3c(NCc4ccco4)ncnc32)[C@H](O)[C@@H]1O [KR, Kinetin riboside] | 33.13 ± 0.14 | 98.5 ± 6.72 | 76.8 ± 13.7 | 73 ± 10.9 | 12.3 ± 1.42 | < 100
 |  |  |  |  | CC/C=C\CC1C(=O)CCC1CC(=O)OC (stereo not shown) [MJ, methyl jasmonate] | > 100 | > 100 | > 100 | > 100 | > 100 | 
 |  |  |  |  | OC[C@H]1O[C@@H](n2cnc3c(NCc4ccccc4)ncnc32)[C@H](O)[C@@H]1O [N^6b, N^6-benzyladenosine, reference compound] |  |  |  |  |  | < 100
72.3 ± 13.6 | 85.4 ± 8.81 | 34.7 ± 2.04 | > 100 | 87.5 ± 15.5 | CC[C@@H](C(C)C)[C@@H](O)[C@H](O)[C@@H](C)[C@H]1CC[C@H]2[C@@H]3CC(=O)[C@H]4C[C@H](O)[C@H](O)C[C@]4(C)[C@H]3CC[C@]12C [SS-HCS, SS-homocastasterone] |  |  |  |  |  | 

Structure (SMILES) | IC50 (HCC827; 48 hours) [µM] | IC50 (H2087; 48 hours) [µM] | IC50 (H1437; 48 hours) [µM] | IC50 (H522; 48 hours) [µM] | IC50 (A549; 48 hours) [µM] | IC50 (HCC827; Homo sapiens, HCC827, 48 hours) [µM] | IC50 (H2087; [1]) [µM] | IC50 (H1437; [2]) [µM] | IC50 (H522; [3]) [µM] | IC50 (A549; Homo sapiens, A549, 48 hours) [µM] | IC50 (NSCLC cells) [µM]
CC[C@H]1C=C(C(=O)N[C@@]2(C(=O)O)C[C@@H]2CC)[C@H]2CCC(=O)[C@H]2C1 [Cor, coronatine] | > 100 | > 100 | > 100 | > 100 | > 100 |  |  |  |  |  | 

Source: US20230241088A1, “COMPOSITION FOR PREVENTING OR TREATING LUNG CANCER COMPRISING ORTHO-TOPOLIN RIBOSIDE AS ACTIVE INGREDIENT” (CHUNG-ANG UNIVERSITY INDUSTRY-ACADEMY COOPERATION FOUNDATION, priority 2022, published 2023)
